Results reported in patent US20160176914A1, “GLYCOSYLATED CARDIOTONIC STEROIDS” (priority 2013, published 2016).
Read-outs that look alike come from different tables or passages of the source.

Legend:
HCMV = assay: Anti-CMV activity assay, inhibition of HCMV replication in infected HFFs; type: cell-based, human Cytomegalovirus (HCMV); details: for SI (selectivity index, CC50/EC50): CC50 noninfected HFFs / EC50 infected HFFs
Procedure: It has been observed that the infection of human foreskin fibroblasts (HFF) cells with HCMV causes an up regulation of the α3-isoform of the Na^+/K^+-Pump. Therefore the inhibition of HCMV replication by the compounds described herein was tested using procedure described by Cai, H. et al., in Med. Chem. Lett. 2014, 5, 395-399, which is incorporated by reference in its entirety. Generally, inhibition of Towne HCMV: pp28-luciferase activity was measured in cell lysates of HCMV-infected HFFs collected at 72 h post infection (hpi). Virus DNA yield in supernatants of HCMV-infected cells collected at 96 hpi was measured by real-time PCR. Plaque reduction assay performed at 8 days postinfection. Data represent mean values (±SD) of triplicate determinations from three independent experiments.
Inhibition of TB40 HCMV: HFFs were infected with HCMV-TB40 strain at MOI of 1 pfu/cell and treated with compounds listed in Tables 1-3 for 3 days.
(§1) The glycosylated cardiotonic steroid compounds were tested for their anti-cytomegalovirus (CMV) activity. Specifically, the compounds were tested for the ability to inhibit HCMV replication. For each compound, the anti-HCMV activity in infected HFFs was expressed as EC50, whereas cytotoxicity in noninfected HFFs was expressed as CC50. Selectivity index (SI), defined as CC50/EC50, was calculated for each compound.

noninfected HFFs = assay: Cytotoxicity in noninfected HFFs (MTT); type: cell-based, human
Procedure: as §1

α2β1 Na+/K+ ATPase = α2β1 Na+/K+ ATPase (Homo sapiens, UniProt P50993); assay: Na+/K+ ATPase pump binding, α2β1 isoform (radioactive displacement assay)
Procedure: (§2) α1/2/3-Na^+/K^+ ATPase pump binding data was assessed for compounds of Table 1.
(§3) Further, from the results, a strong correlation between cancer cell cytotoxicity and α1/3-Na^+/K^+ ATPase pump binding selectivity was observed (see: α-L-amiceto-mono-, di- and tri-saccharides; Scheme 1). In addition, it was observed that mono-saccharides have improved activity and α1/2/3-isoform selectivity. […] The Na^+/K^+ ATPase binding data also correlates with the cytotoxicity data, which can be seen in the binding data of compounds 1.5-1.7 to all three isomers (α1β1/α2β1/α3β1), which decreases proportionally the MTT data (Table 1).

NCI-H460 cells [1] = assay: Apoptosis assay (Hoechst 33342); type: cell-based; details: Homo sapiens, read-out: Anticancer Apoptosis GI50
Procedure: (§4) Human non-small cell lung cancer cells (NCI-H460) were purchased from the American Type Culture Collection (Manassas, Va.). NCI-H460 cells were cultured in RPMI 1640 medium supplemented with 10% bovine fetal serum (FBS), 2 mM L-glutamine and 100-units/ml penicillin/streptomycin. All experiments with NCI-H460 cells were performed in medium enriched with 1% FBS serum, 2 mM L-glutamine and 100-units/ml penicillin/streptomycin. 1% FBS was used due to existing concerns about digitoxin binding to serum proteins.
Cells were seeded overnight in 12 or 24 well plates at a concentration of 1×10^5 cell/ml and subsequently treated with different concentrations of the glycosylated CS compounds for 24 h. After treatment, cells were incubated with […] of Hoechst 33342 for 30 min and analyzed for apoptosis by scoring the percentage of cells having intensely condensed chromatin and/or fragmented nuclei using fluorescence microscopy (Leica Microsystems, Bannockburn, Ill.). Approximately 1,000 nuclei from ten random fields were analyzed for each sample. The apoptotic index was calculated as the percentage of cells with apoptotic nuclei over total number of cells.
(§5) All results are presented as mean±standard deviation. For cell viability, ATPase activity and apoptosis assays, dose-response curves and concentrations that caused 50% effect (i.e. IC50) were calculated for the prepared compounds listed in Tables 1-3 in all the cell lines tested using non-linear regression analysis in GraphPad Prism 5.0 (San Diego, Calif.). Two-way analysis of variance (ANOVA) and unpaired two-tailed Student's t-test with α=0.05 were performed to compare the effect of compounds and administered dose on cell viability, apoptosis and quantified protein expression data. Post-hoc Tukey-Kramer HSD tests were conducted on significant ANOVA results. Results were considered significant when p≦0.05.

α3β1 Na+/K+ ATPase = α3β1 Na+/K+ ATPase (Homo sapiens, UniProt P13637); assay: Na+/K+ ATPase pump binding, α3β1 isoform (radioactive displacement assay)
Procedure: as §2, §3

α1β1 Na+/K+ ATPase = α1β1 Na+/K+ ATPase (Homo sapiens, UniProt P05023); assay: Na+/K+ ATPase pump binding, α1β1 isoform (radioactive displacement assay)
Procedure: as §2, §3

[2] = Cytotoxicity in noninfected HFFs (MTT); type: cell-based, human; details: human
Procedure: as §1

NCI-H460 cells [3] = assay: cells; type: cell-based, Human; details: Homo sapiens
Procedure: as §4
Cells were seeded overnight in 96 well plates at a concentration of 1×10^4 cells/well, and then treated for 48 h with a log10 scale dilution series of the glycosylated CS compounds (e.g., digitoxin or D6-MA) dissolved in sterile filtered DMSO. Subsequently, 10 μl of 5 mg/ml MTT reagent was added to each well and then incubated for 4 h at 37° C. Isopropanol acidified with 0.04 N HCl was used to dissolve converted dye. Absorbance at 570 nm was measured using an Automated Microplate Reader ELx800 (BioTek, Winooski, Vt.). Each experiment was conducted 4 times with 4 replicate wells per concentration.
as §5

[4] = anti-HCMV activity in infected HFFs, read-out: EC50
[5] = NCI-H460, 48 h, read-out: Anticancer MTT IC50

Compound	EC50 (HCMV; [4])	CC50 (noninfected HFFs)	SI (selectivity index, CC50/EC50) (HCMV)	EC50 (HCMV; Human betaherpesvirus 5)	CC50 [2]	Kd (α2β1 Na+/K+ ATPase)	GI50 (NCI-H460 cells [1]; NCI-H460, 24 h)	Kd (α3β1 Na+/K+ ATPase)	Kd (α1β1 Na+/K+ ATPase)	IC50 (NCI-H460 cells [3]; [5])	further results
α-D-Rhamnose	26.6 ± 0.88 nM	2270 ± 551 nM	–	–	–	–	–	–	–	–	–
C[C@H]1O[C@@H](O[C@H]2[C@@H](O)C[C@H](O[C@H]3[C@@H](O)C[C@H](O[C@H]4CC[C@@]5(C)[C@H](CC[C@@H]6[C@@H]5CC[C@]5(C)[C@@H](C7=CC(=O)OC7)CC[C@]65O)C4)O[C@@H]3C)O[C@@H]2C)C[C@H](O)[C@@H]1O [Digitoxin, reference compound]	–	–	120.46	23.3 ± 0.67 nM	2810 ± 668 nM	–	–	–	–	–	Kd (α2β1 Na+/K+ ATPase; second KD column of Table 4, read-out: Na+/K+ATPase inhibition KD, α2β1): 38 nM; GI50 (NCI-H460 cells [1]; NCI-H460, Table 4, 24 h treatment, unit inferred): 11 nM; Kd (α3β1 Na+/K+ ATPase; third KD column of Table 4, head printed α1β1 a second time, read-out: Na+/K+ATPase inhibition KD, α1β1): 36 nM; SI (selectivity index, CC50/EC50) (HCMV; listed as digitoxin): 120; Kd (α1β1 Na+/K+ ATPase; first KD column of Table 4, read-out: Na+/K+ATPase inhibition KD, α1β1): 80 nM; IC50 (NCI-H460 cells [3]; NCI-H460, Table 4, 48 h treatment, unit inferred, read-out: Anticancer MTT IC50): 357 nM; IC50 (NCI-H460 cells [3]; NCI-H460, Table 5, H460 cells, compounds of Table 2, read-out: IC50): 157 nM
α-D-Amicetose	37.5 ± 0.52 nM	1110 ± 273 nM	–	–	–	–	–	–	–	–	–
CC1O[C@@H](O[C@H]2CCC3(C)C(CC[C@@H]4C3CCC3(C)[C@@H](C5=CC(=O)OC5)CC[C@]43O)C2)C(O)C(O)[C@H]1O (stereo partly drawn) [Compound 1.2, digitoxigenin α-L-rhamnopyranoside]	–	–	173	4.77 ± 0.23 nM	664 ± 185 nM	23 nM	2 nM	19 nM	27 nM	47 nM	SI (selectivity index, CC50/EC50) (HCMV; listed as α-L-Rhamnose (1.2)): 139.25
CC1OC(OC2CCC(OC3CCC(OC4CCC5(C)C(CCC6C5CCC5(C)C(C7=CC(=O)OC7)CCC65O)C4)OC3C)OC2C)CCC1O (stereo not drawn) [Compound 1.7]	–	–	–	–	–	149 nM	–	736 nM	670 nM	3960 nM	–
CC1O[C@@H](O[C@H]2CCC3(C)C(CC[C@@H]4C3CCC3(C)[C@@H](C5=CC(=O)OC5)CC[C@]43O)C2)CC[C@H]1O (stereo partly drawn) [Compound 1.5, digitoxigenin α-L-amecitopyranoside]	–	–	139	3.77 ± 0.08 nM	655 ± 177 nM	38 nM	3 nM	26 nM	56 nM	48 nM	SI (selectivity index, CC50/EC50) (HCMV; listed as α-L-Amicetose (1.5)): 173.61
